Among the data in PubChem BioAssay AID328 (DTP/NCI, 2004) are T/C values, retold here.

“And” between values parts separate entries of the source, which are not always exact repeats. Equal entries are not always repeated. Toxic doses and inconclusive results are not listed.

This assay relates to BDF1 mice, P388 leukemia ip, median survival T/C. The experiment in a line: NCI In Vivo Anticancer Drug Screen. Data for tumor model P388 Leukemia (intraperitoneal) in B6D2F1 (BDF1) mice. The settings on record: endpoint: median survival time, higher = longer survival. Summed up:
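Mice carrying the transplantable tumour receive compound or vehicle. Survival is followed in each arm, and the treated measure is divided by the vehicle measure.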

[1] abbreviates: dose: 25.0 mg/kg/injection, schedule: Q01DX009 (ip), vehicle: saline.
The mark [2] stands for this setting: dose: 50.0 mg/kg/injection, schedule: Q01DX009 (ip), vehicle: saline.
[3] abbreviates: dose: 100.0 mg/kg/injection, schedule: Q01DX009 (ip), vehicle: saline.
Where [4] appears, read: dose: 25.0 mg/kg/injection, schedule: Q04DX003 (ip), vehicle: saline with Tween-80.
Where [5] appears, read: dose: 50.0 mg/kg/injection, schedule: Q04DX003 (ip), vehicle: saline with Tween-80.
Setting [6] is: dose: 50.0 mg/kg/injection, schedule: Q01DX009 (ip), vehicle: saline with Tween-80.

`CCCCCCCCCCCCCCC(F)C(=O)OC` (stereo not given): the T/C runs as follows: (dose: 25.0 mg/kg/injection, schedule: Q01DX009 (sc), vehicle: olive oil, sesame oil, peanut oil) 95 % of control; (dose: 50.0 mg/kg/injection, schedule: Q01DX009 (sc), vehicle: olive oil, sesame oil, peanut oil) 86 % of control; (dose: 50.0 mg/kg/injection, schedule: Q04DX003 (sc), vehicle: olive oil, sesame oil, peanut oil) 91 % of control; (dose: 100.0 mg/kg/injection, schedule: Q01DX009 (sc), vehicle: olive oil, sesame oil, peanut oil) 100 % of control; (dose: 100.0 mg/kg/injection, schedule: Q04DX003 (sc), vehicle: olive oil, sesame oil, peanut oil) 91 % of control.

Take `CC(C)(C)/C([O-])=N/[N+](C)(C)Cc1ccccc1`: the T/C was 109 % of control (dose: 100.0 mg/kg/injection, schedule: Q01DX001 (ip), vehicle: saline); 104 % of control (dose: 200.0 mg/kg/injection, schedule: Q01DX001 (ip), vehicle: saline); 104 % of control (dose: 400.0 mg/kg/injection, schedule: Q01DX001 (ip), vehicle: saline).

In the case of `CCCCCCCCCCCC(O)CCCCC` (stereo not given), the T/C (dose: 100.0 mg/kg/injection, schedule: Q01DX009 (ip), vehicle: other) was 120 % of control; the T/C (dose: 200.0 mg/kg/injection, schedule: Q01DX009 (ip), vehicle: other) was 115 % of control; the T/C (dose: 400.0 mg/kg/injection, schedule: Q01DX009 (ip), vehicle: other) was 115 % of control.

As to `CCc1nc2nc(C)cc(C)n2n1`, the T/C was 91 % of control (dose: 12.5 mg/kg/injection, schedule: Q01DX009 (ip), vehicle: saline); 89 % of control under setting [1]; 97 % of control and 120 % of control under setting [2]; 86 % of control and 91 % of control under setting [3]; 104 % of control (dose: 200.0 mg/kg/injection, schedule: Q01DX009 (ip), vehicle: saline).

As to `Cn1cc(NC(=O)c2cc(NC(=O)c3cc(NC=O)cn3C)cn2C)cc1C(=O)NCCC(=N)N`, the T/C is 113 % of control (dose: 110.0 mg/kg/injection, schedule: Q04DX003 (ip), vehicle: Klucel (hydroxypropylcellulose) (HPC)); 109 % of control (dose: 170.0 mg/kg/injection, schedule: Q04DX003 (ip), vehicle: Klucel (hydroxypropylcellulose) (HPC)); 104 % of control (dose: 255.0 mg/kg/injection, schedule: Q04DX003 (ip), vehicle: Klucel (hydroxypropylcellulose) (HPC)).

For the molecule `CN(C)N=C(Cc1ccccc1)Cc1ccccc1`, the T/C reads like this: (dose: 12.5 mg/kg/injection, schedule: Q04DX003 (ip), vehicle: saline with Tween-80) 108 % of control; under setting [4], 108 % of control; under setting [5], 104 % of control.

For `CCOC(=O)Nc1cncc(NC(=O)OCC)n1`, the T/C by setting is: (dose: 6.25 mg/kg/injection, schedule: Q04DX003 (ip), vehicle: water) 106 % of control; (dose: 12.5 mg/kg/injection, schedule: Q04DX003 (ip), vehicle: water) 100 % of control; (dose: 25.0 mg/kg/injection, schedule: Q01DX009 (ip), vehicle: water) 100 % of control; (dose: 25.0 mg/kg/injection, schedule: Q04DX003 (ip), vehicle: water) 105 % of control; (dose: 50.0 mg/kg/injection, schedule: Q01DX009 (ip), vehicle: water) 101 % of control; (dose: 50.0 mg/kg/injection, schedule: Q04DX003 (ip), vehicle: water) 101 % of control. The T/C was 93 % of control (dose: 100.0 mg/kg/injection, schedule: Q01DX009 (ip), vehicle: water); 100 % of control (dose: 100.0 mg/kg/injection, schedule: Q04DX003 (ip), vehicle: water); 95 % of control (dose: 200.0 mg/kg/injection, schedule: Q01DX009 (ip), vehicle: water); 87 % of control (dose: 400.0 mg/kg/injection, schedule: Q01DX009 (ip), vehicle: water).

As for `C/C(=C\Cl)CO`, the T/C was 95 % of control (dose: 56.25 mg/kg/injection, schedule: Q01DX001 (ip), vehicle: saline); 100 % of control (dose: 56.25 mg/kg/injection, schedule: Q04DX003 (ip), vehicle: saline); 100 % of control (dose: 112.5 mg/kg/injection, schedule: Q01DX001 (ip), vehicle: saline); 95 % of control (dose: 112.5 mg/kg/injection, schedule: Q04DX003 (ip), vehicle: saline); 95 % of control (dose: 150.0 mg/kg/injection, schedule: Q01DX009 (ip), vehicle: alcohol); 90 % of control (dose: 225.0 mg/kg/injection, schedule: Q01DX001 (ip), vehicle: saline). Moreover, the T/C reads like this: (dose: 225.0 mg/kg/injection, schedule: Q01DX009 (ip), vehicle: alcohol) 100 % of control; (dose: 225.0 mg/kg/injection, schedule: Q04DX003 (ip), vehicle: saline) 90 % of control.

For the molecule `NC(N)=NCCCCC(=O)Nc1ccc(S(N)(=O)=O)cc1`, the T/C reads like this: under setting [1], 97 % of control; under setting [2], 112 % of control; under setting [3], 110 % of control.

As for `CCOC(=O)CCC(NC(=O)c1ccc(N(C)S(=O)(=O)c2ccc(C)cc2)c(F)c1)C(=O)OCC` (stereo not given), the T/C (dose: 75.0 mg/kg/injection, schedule: Q04DX003 (ip), vehicle: saline) was 95 % of control; the T/C (dose: 150.0 mg/kg/injection, schedule: Q04DX003 (ip), vehicle: saline) is 108 % of control; the T/C (dose: 300.0 mg/kg/injection, schedule: Q04DX003 (ip), vehicle: saline) was 100 % of control.

Regarding `COC1CCC(C=O)C(C#N)(C#N)C1(C#N)C#N` (stereo not given), the T/C (dose: 50.0 mg/kg/injection, schedule: Q01DX001 (ip), vehicle: saline with Tween-80) was 112 % of control and the T/C (dose: 100.0 mg/kg/injection, schedule: Q01DX001 (ip), vehicle: saline with Tween-80) was 100 % of control.

For the molecule `CCOC(=O)CC(C)(C)NCc1ccccc1`, the T/C is, setting by setting: (dose: 25.0 mg/kg/injection, schedule: Q01DX009 (ip), vehicle: Klucel (hydroxypropylcellulose) (HPC)) 90 % of control; (dose: 25.0 mg/kg/injection, schedule: Q04DX003 (ip), vehicle: Klucel (hydroxypropylcellulose) (HPC)) 108 % of control; (dose: 50.0 mg/kg/injection, schedule: Q04DX003 (ip), vehicle: Klucel (hydroxypropylcellulose) (HPC)) 95 % of control; (dose: 100.0 mg/kg/injection, schedule: Q01DX009 (ip), vehicle: Klucel (hydroxypropylcellulose) (HPC)) 95 % of control; (dose: 100.0 mg/kg/injection, schedule: Q04DX003 (ip), vehicle: Klucel (hydroxypropylcellulose) (HPC)) 116 % of control.

In the case of `C=C(C(=O)OC1C/C(C)=C/C(O)C/C(C)=C/C2OC(=O)C(=C)C21)C(C)O` (stereo not given), the T/C (dose: 100.0 mg/kg/injection, schedule: Q04DX002 (ip), vehicle: Klucel (hydroxypropylcellulose) (HPC)) was 120 % of control.

Turning to `CC[C@H]1CN2CCc3cc(OC)c(OC)cc3[C@@H]2C[C@@H]1C[C@@H]1c2cc(OC)c(OC)cc2CCN1CCN(CCCl)CCCl`, the T/C runs as follows: (dose: 4.3 mg/kg/injection, schedule: Q04DX003 (ip), vehicle: saline with Tween-80) 121 % of control; (dose: 6.48 mg/kg/injection, schedule: Q04DX003 (ip), vehicle: saline with Tween-80) 108 % of control; (dose: 10.8 mg/kg/injection, schedule: Q04DX003 (ip), vehicle: saline with Tween-80) 119 % of control; (dose: 12.0 mg/kg/injection, schedule: Q04DX003 (ip), vehicle: saline with Tween-80) 153 % of control; (dose: 20.0 mg/kg/injection, schedule: Q04DX003 (ip), vehicle: saline with Tween-80) 157 % of control.

Turning to `CCN(CC)c1nc(N(C)C)nc(N(C)C)n1`, the T/C reads like this: under setting [6], 105 % of control; (dose: 100.0 mg/kg/injection, schedule: Q01DX009 (ip), vehicle: saline with Tween-80) 99 % of control; (dose: 200.0 mg/kg/injection, schedule: Q01DX009 (ip), vehicle: saline with Tween-80) 104 % of control; (dose: 400.0 mg/kg/injection, schedule: Q01DX009 (ip), vehicle: saline with Tween-80) 117 % of control.

With `O=C(Nc1ccc(C2=NCCN2)cc1)Nc1cccc(NC(=O)Nc2cccc(C3=NCCN3)c2)c1`, the T/C is 150 % of control (dose: 12.5 mg/kg/injection, schedule: Q01DX009 (ip), vehicle: saline with Tween-80); 266 % of control and 170 % of control (dose: 16.5 mg/kg/injection, schedule: Q04DX003 (ip), vehicle: saline with Tween-80); 105 % of control (dose: 25.0 mg/kg/injection, schedule: Q01DX009 (ip), vehicle: saline with Tween-80); 250 % of control and 190 % of control and 200 % of control under setting [4]; 283 % of control and 185 % of control (dose: 37.5 mg/kg/injection, schedule: Q04DX003 (ip), vehicle: saline with Tween-80); 90 % of control under setting [6]. For the same molecule, the T/C under setting [5] is 177 % of control.
